This passage reports Drug uptake results from ChEMBL document CHEMBL1139986, “Synthesis and biodistribution of 8-iodo-11-(4-methylpiperazino)-5H-dibenzo[b,e][1,4]-diazepine: Iozapine” (Bioorg Med Chem Lett, 2007).

What all share (assay type): ADME, organism-based
For series [1], the system named is Stomach. As to the kind of experiment: Biodistribution in BALB/c mouse stomach at 7 to 8 KBq, iv after 120 mins. The following applies: in vivo, 2 h.
For series [2], the system named is Thyroid gland. As to the kind of experiment: Biodistribution in BALB/c mouse thyroid at 7 to 8 KBq, iv after 60 mins. The following applies: in vivo, 1 h.
Series [3] concerns Heart. As to the kind of experiment: Biodistribution in BALB/c mouse heart at 7 to 8 KBq, iv after 120 mins. The following applies: in vivo, 2 h.
The subject of series [4] is Cerebellum. As to the kind of experiment: Biodistribution in BALB/c mouse cerebellum at 7 to 8 KBq, iv after 120 mins. The following applies: in vivo, 2 h.
Series [5] has as its system Cortex. As to the kind of experiment: Biodistribution in BALB/c mouse cortex at 7 to 8 KBq, iv after 5 mins. The following applies: in vivo.
Series [6] has as its system Spleen. As to the kind of experiment: Biodistribution in BALB/c mouse spleen at 7 to 8 KBq, iv after 15 mins. The following applies: in vivo, 0.25 h.
For series [7], the system named is Intestine. As to the kind of experiment: Biodistribution in BALB/c mouse intestine at 7 to 8 KBq, iv after 120 mins. The following applies: in vivo, 2 h.
In series [8] the test system is Liver. As to the kind of experiment: Biodistribution in BALB/c mouse liver at 7 to 8 KBq, iv after 120 mins. The following applies: in vivo, 2 h.
Series [9] relates to Thalamus. As to the kind of experiment: Biodistribution in BALB/c mouse thalamus at 7 to 8 KBq, iv after 5 mins. The following applies: in vivo.
Series [10] relates to Thalamus. As to the kind of experiment: Biodistribution in BALB/c mouse thalamus at 7 to 8 KBq, iv after 60 mins. The following applies: in vivo, 1 h.
For series [11], the system named is Cerebellum. As to the kind of experiment: Biodistribution in BALB/c mouse cerebellum at 7 to 8 KBq, iv after 5 mins. The following applies: in vivo.
Series [12] relates to Blood. As to the kind of experiment: Biodistribution in BALB/c mouse blood at 7 to 8 KBq, iv after 120 mins. The following applies: in vivo, 2 h.
Series [13] has as its system Brain. As to the kind of experiment: Biodistribution in BALB/c mouse brain at 7 to 8 KBq, iv after 120 mins. The following applies: in vivo, 2 h.
Series [14] relates to Pancreas. As to the kind of experiment: Biodistribution in BALB/c mouse pancreas at 7 to 8 KBq, iv after 15 mins. The following applies: in vivo, 0.25 h.
Series [15] concerns Mus musculus. As to the kind of experiment: Biodistribution in BALB/c mouse lower body at 7 to 8 KBq, iv after 60 mins. The following applies: in vivo, 1 h.
The subject of series [16] is Striatum. As to the kind of experiment: Biodistribution in BALB/c mouse striatum at 7 to 8 KBq, iv after 5 mins. The following applies: in vivo.
For series [17], the system named is Thyroid gland. As to the kind of experiment: Biodistribution in BALB/c mouse thyroid at 7 to 8 KBq, iv after 5 mins. The following applies: in vivo.
Series [18] relates to Mus musculus. As to the kind of experiment: Biodistribution in BALB/c mouse upper body at 7 to 8 KBq, iv after 15 mins. The following applies: in vivo, 0.25 h.
Series [19] relates to Kidney. As to the kind of experiment: Biodistribution in BALB/c mouse kidney at 7 to 8 KBq, iv after 120 mins. The following applies: in vivo, 2 h.
The test system of series [20] is Liver. As to the kind of experiment: Biodistribution in BALB/c mouse liver at 7 to 8 KBq, iv after 5 mins. The following applies: in vivo.

`CN1CCN(C2=Nc3cc([125I])ccc3Nc3ccccc32)CC1` [[125I]I-OZAPINE]: the Drug uptake in series [1] was found to be 4.61 %ID; in [2], 0.68 %ID; in [3], 0.05 %ID; in [4], 0.12 %ID; in [5] it was 7.22 %ID; in series [6], 0.31 %ID. Moreover, the Drug uptake in series [7] is given as 34.13 %ID; in [8], 9.8 %ID; in series [9], 7.82 %ID; in series [10], 1.56 %ID; in series [11] it was 6.16 %ID; in [12] it was 1.77 %ID. Further, the Drug uptake in series [13] came out at 0.1 %ID; in [14], 1.02 %ID; in series [15], 10.24 %ID; in series [16], 7.28 %ID; in [17], 0 %ID; in series [18] it was 17.41 %ID. The Drug uptake in series [19] is on record as 1.19 %ID; in series [20], 11.12 %ID.
